The source of these data is PMC6259843 (Molecules, 2011).

For this assay, the target named is T1, pancreatic α-amylase (Sus scrofa, UniProt P00690).
T1 construct: gene AMY2
T1 sequence (P00690 16-511): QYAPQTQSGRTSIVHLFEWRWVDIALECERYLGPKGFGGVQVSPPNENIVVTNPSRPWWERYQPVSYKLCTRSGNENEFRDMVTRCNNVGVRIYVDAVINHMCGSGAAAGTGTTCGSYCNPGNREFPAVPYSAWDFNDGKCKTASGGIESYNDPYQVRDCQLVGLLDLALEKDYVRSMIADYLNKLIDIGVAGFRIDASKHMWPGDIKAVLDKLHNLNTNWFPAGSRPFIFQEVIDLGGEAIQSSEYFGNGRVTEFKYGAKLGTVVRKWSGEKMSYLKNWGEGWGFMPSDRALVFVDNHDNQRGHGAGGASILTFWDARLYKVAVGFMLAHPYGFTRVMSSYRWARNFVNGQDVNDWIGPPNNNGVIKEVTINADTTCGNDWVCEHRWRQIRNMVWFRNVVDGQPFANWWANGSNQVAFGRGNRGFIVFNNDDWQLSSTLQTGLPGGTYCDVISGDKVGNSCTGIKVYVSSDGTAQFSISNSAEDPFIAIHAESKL
Kind of assay: starch hydrolysis inhibition assay with DNS readout at […] nm; Lineweaver-Burk kinetics. The format is biochemical.

By IC50 is commonly meant the concentration needed to halve the response being measured. For `C[C@@H]1O[C@@H](OC[C@H]2O[C@@H](Oc3cc4c(O)cc(O)cc4[o+]c3-c3ccc(O)c(O)c3)[C@H](O)[C@@H](O)[C@@H]2O)[C@H](O)[C@H](O)[C@H]1O` [C3R, Cyanidin-3-rutinoside], half-maximal inhibition (IC50) was put at 24.4 ± 0.1 µM.
